Data as given in patent publication US11168079B2, “Alkene compounds as farnesoid x receptor modulators” (BRISTOL-MYERS SQUIBB COMPANY, priority 2017, dated 2021).

Each molecule was assayed against T1, human FXR (Homo sapiens, UniProt Q96RI1) (assay: transient human FXR/Gal4-luciferase reporter assay (HLE GAL-FXR)). Details: FXR EC50 (nM), Gal4-hFXR fusion reporter, HEK293 cells; Table 1.
T1 sequence (Q96RI1 262-486 limits assumed): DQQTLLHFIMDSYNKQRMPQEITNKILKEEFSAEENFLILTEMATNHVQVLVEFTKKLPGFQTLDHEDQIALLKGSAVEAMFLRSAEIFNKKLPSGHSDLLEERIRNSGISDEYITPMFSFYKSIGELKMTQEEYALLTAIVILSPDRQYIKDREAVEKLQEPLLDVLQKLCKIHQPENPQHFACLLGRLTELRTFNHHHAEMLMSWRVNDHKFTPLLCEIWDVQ
Experimental: A Gal4-hFXR fusion construct reporter system was used as the primary assay to characterize compound activity. A construct including 5 copies of the Gal4 promoter response element upstream of a firefly luciferase reporter cDNA was stably expressed in HEK293 cells. This reporter cell line was maintained in Dulbecco's Modified Eagle's medium (DMEM; Gibco) supplemented with 1% penicillin-streptomycin (P/S) solution, 500 μg/mL Zeocin and 10% charcoal/dextran-treated fetal bovine serum (cs-FBS) at 37° C. in a humidified 5% CO2 atmosphere. Another plasmid was constructed in which the human cytomegalovirus promoter in the pcDNA3.1 vector directs the expression of the cDNA encoding a fusion protein comprised of the DNA binding domain from the Gal4 transcription factor fused to the ligand binding domain from human FXR.
For compound testing, 100 nL of the compounds (serial dilutions in DMSO) are dispensed with an Echo acoustic dispenser (Labcyte) into the wells of a Corning/Costar clear bottom 384-well white plate. The transfected cells are harvested, counted, and diluted such that 10-25,000 cells in 25 μL are plated into each well of the 384-well compound assay plate. The compound-treated cells are incubated overnight at 37° C. in a humidified 5% CO2 atmosphere. The next morning 25 μL of Steady-Glo (Promega) are added to each well of the plate, the mixture is incubated for 15 min. with shaking, and luminescence is measured on an Envision (Perkin Elmer) plate reader.

| SMILES | EC50 [nM] |
| --- | --- |
| COc1cc(C(=O)O)cc(-c2ccc(N3CC(/C=C/c4c(-c5c(Cl)cncc5Cl)noc4C4CC4)C3)cc2)c1 [Example 219] | 117 |
| O=C(O)c1cc(C(F)(F)F)c2cc(N3CC[C@@H](/C=C/c4c(-c5ccccc5C(F)(F)F)noc4C4CC4)C3)ccc2n1 [Example 145] | 419 |
| COc1cc(C(=O)O)nc2c(F)cc(N3CC(/C=C/c4c(-c5ccccc5C(F)(F)F)noc4C4CC4)C3)cc12 [Example 215] | 199 |
| O=C(O)c1ccc2nc(N3CC4C(/C=C/c5c(-c6c(Cl)cncc6Cl)noc5C5CC5)C4C3)sc2c1 (centres unmarked) [Example 78] | 515 |
| O=C(O)c1cnc2cc(N3CC4C(/C=C/c5c(-c6ccccc6C(F)(F)F)noc5C5CC5)C4C3)ccc2n1 (centres unmarked) [Example 140] | 142 |
| O=C(O)c1cc(O[C@H]2C[C@H](F)C2)c2cc(N3CC4C(/C=C/c5c(-c6c(Cl)cncc6Cl)noc5C5CC5)C4C3)ccc2n1 (some centres unmarked) [Example 204] | 19 |
| Cn1cc(C(=O)O)c(=O)c2ccc(N3CC(/C=C/c4c(-c5ccccc5C(F)(F)F)noc4C4CC4)C3)cc21 [Example 181] | 400 |
| O=C(O)c1cc(F)c2nc(N3CCC(/C=C/c4c(-c5ccccc5OC(F)(F)F)noc4C4CC4)CC3)sc2c1 [Example 43] | 42 |
| O=C(O)c1cc2ccc(N3CCC(/C=C/c4c(-c5ncccc5C(F)(F)F)noc4C4CC4)CC3)cc2cn1 [Example 115] | 112 |
| O=C(O)c1cc2ccc(N3CCC(/C=C/c4c(-c5ccccc5OC(F)(F)F)noc4C4CC4)CC3)cc2nn1 [Example 67] | 1210 |
| O=C(O)C1(c2ccc(N3CCC(/C=C/c4c(-c5c(Cl)cccc5Cl)noc4C4CC4)CC3)cc2)CC1 [Example 59] | 214 |
| O=C(O)c1cc(O[C@H]2C[C@H](F)C2)c2cc(N3CC(/C=C/c4c(-c5ccccc5C(F)(F)F)noc4C4CC4)C3)ccc2n1 [Example 194] | 159 |
| O=C(O)c1nccc2cc(N3CC4C(/C=C/c5c(-c6c(Cl)cncc6Cl)noc5C5CC5)C4C3)ccc12 (centres unmarked) [Example 105] | 310 |
| O=C(O)c1ccc(-c2ccc(N3CC(/C=C/c4c(-c5ccccc5C(F)(F)F)noc4C4CC4)C3)cc2)cc1 [Example 205] | 189 |
| COc1cc(C(=O)O)nc2ccc(N3CC4C(/C=C/c5c(-c6c(Cl)cncc6Cl)noc5C5CC5)C4C3)cc12 (centres unmarked) [Example 80] | 38 |
| O=C(O)c1cc(OC2CCC2)c2cc(N3CC[C@@H](/C=C/c4c(-c5ccccc5C(F)(F)F)noc4C4CC4)C3)ccc2n1 [Example 147] | 139 |
| CC(C)Oc1cc(C(=O)O)nc2ccc(N3CC(/C=C/c4c(-c5ccccc5C(F)(F)F)noc4C4CC4)C3)cc12 [Example 149] | 164 |
| O=C(O)c1cc(C(F)(F)F)c2cc(N3CC4C(/C=C/c5c(-c6c(Cl)cncc6Cl)noc5C5CC5)C4C3)ccc2n1 (centres unmarked) [Example 72] | 98 |
| O=C(O)c1cc(OC2CCC2)c2cc(N3CC4C(/C=C/c5c(-c6cccnc6C(F)(F)F)noc5C5CC5)C4C3)ccc2n1 (centres unmarked) [Example 142] | 54 |
| COCCOc1cc(C(=O)O)nc2ccc(N3CC4C(/C=C/c5c(-c6c(Cl)cncc6Cl)noc5C5CC5)C4C3)cc12 (centres unmarked) [Example 113] | 154 |
| O=C(O)c1ccc(N2CCC(/C=C/c3c(-c4c(Cl)cccc4Cl)noc3C3CC3)CC2)cc1Cl [Example 53] | 23 |
| O=C(O)c1cc(F)c2nc(N3CCC(/C=C/c4c(-c5ccccc5C(F)(F)F)noc4C4CC4)CC3)sc2c1 [Example 49] | 23 |

| SMILES | EC50 [nM] |
| --- | --- |
| O=C(O)c1cc(C(F)(F)F)c2cc(N3CC[C@H](/C=C/c4c(-c5ccccc5C(F)(F)F)noc4C4CC4)C3)ccc2n1 [Example 146] | 22 |
| O=C(O)c1nccc2cc(N3CCC(/C=C/c4c(-c5c(Cl)cncc5Cl)noc4C4CC4)CC3)ccc12 [Example 104] | 219 |
| Cn1cc(C(=O)O)c2ccc(N3CC(/C=C/c4c(-c5ccccc5C(F)(F)F)noc4C4CC4)C3)cc21 [Example 201] | 178 |
| O=C(O)c1cc(OC2CCC2)c2cc(N3CC4C(/C=C/c5c(-c6ccccc6C(F)(F)F)noc5C5CC5)C4C3)ccc2n1 (centres unmarked) [Example 130] | 50 |
| O=C(O)c1cc(OC2CCC2)c2cc(N3CC(/C=C/c4c(-c5cccnc5C(F)(F)F)noc4C4CC4)C3)ccc2n1 [Example 170] | 50 |
| O=C(O)c1cc(OC(F)F)c2cc(N3CC4C(/C=C/c5c(-c6c(Cl)cncc6Cl)noc5C5CC5)C4C3)ccc2n1 (centres unmarked) [Example 91] | 4 |
| O=C(O)c1cc(OC(F)F)c2cc(N3CCC(/C=C/c4c(-c5ccccc5C(F)(F)F)noc4C4CC4)CC3)ccc2n1 [Example 99] | 3 |
| Cc1nc(C(=O)O)cc2ccc(N3CCC(/C=C/c4c(-c5ccccc5OC(F)(F)F)noc4C4CC4)CC3)cc12 [Example 119] | 96 |
| [2H]C([2H])([2H])Oc1cc(C(=O)O)nc2ccc(N3CC4C(/C=C/c5c(-c6c(Cl)cncc6Cl)noc5C5CC5)C4C3)cc12 (centres unmarked) [Example 202] | 30 |
| COc1cc(C(=O)O)nc2ccc(N3CC(/C=C/c4c(-c5c(Cl)cncc5Cl)noc4C4CC4)C3)cc12 [Example 166] | 29 |
| O=C(O)c1ccc2nc(N3CC4C(/C=C/c5c(-c6c(Cl)cccc6Cl)noc5C5CC5)C4C3)sc2c1 (centres unmarked) [Example 46] | 117 |
| O=C(O)c1cc(O[C@H]2C[C@@H](F)C2)c2cc(N3CC4C(/C=C/c5c(-c6c(Cl)cncc6Cl)noc5C5CC5)C4C3)ccc2n1 (some centres unmarked) [Example 203] | 16 |
| Clc1cccc(Cl)c1-c1noc(C2CC2)c1/C=C/C1CCN(c2cccc(-c3nn[nH]n3)c2)CC1 [Example 63] | 216 |
| Cn1c(N2CCC(/C=C/c3c(-c4c(Cl)cccc4Cl)noc3C3CC3)CC2)nc2cc(C(=O)O)ccc21 [Example 28] | 500 |
| O=C(O)c1cnn(-c2ccc(N3CC(/C=C/c4c(-c5c(Cl)cncc5Cl)noc4C4CC4)C3)cc2)c1 [Example 220] | 107 |
| O=C(O)c1cnc2cc(N3CCC(/C=C/c4c(-c5c(Cl)cccc5Cl)noc4C4CC4)CC3)ccc2c1 [Example 69] | 31 |
| O=C(O)c1ccc2nc(N3CCC(/C=C/c4c(-c5c(Cl)cccc5Cl)noc4C4CC4)CC3)ccc2c1 [Example 33] | 15 |
| Cn1nc(C(=O)O)c2ccc(N3CCC(/C=C/c4c(-c5c(Cl)cccc5Cl)noc4C4CC4)CC3)cc21 [Example 41] | 236 |
| O=C(O)c1c2ccc(N3CC4C(/C=C/c5c(-c6c(Cl)cccc6Cl)noc5C5CC5)C4C3)cc2nn1CC1CC1 (centres unmarked) [Example 212] | 21 |
| COc1cc(C(=O)O)nc2ccc(N3CC4C(/C=C/c5c(-c6ccccc6C(F)(F)F)noc5C5CC5)C4C3)cc12 (centres unmarked) [Example 132] | 16 |
| O=C(O)c1cc2ccc(N3CC4C(/C=C/c5c(-c6c(Cl)cncc6Cl)noc5C5CC5)C4C3)cc2cn1 (centres unmarked) [Example 73] | 673 |
| O=C(O)c1cc(OCC(F)F)c2cc(N3CC(/C=C/c4c(-c5ccccc5C(F)(F)F)noc4C4CC4)C3)ccc2n1 [Example 182] | 72 |

Same assay, conditions: HLE GAL-FXR EC50, Gal4-hFXR fusion reporter, HEK293 cells

| SMILES | EC50 [nM] |
| --- | --- |
| COc1cc(C(=O)O)cc(-c2cnc(N3CC4C(/C=C/c5c(-c6c(Cl)cncc6Cl)noc5C5CC5)C4C3)s2)c1 (centres unmarked) [Example 216, (E)-3-(2-(6-(2-(5-cyclopropyl-3-(3,5-dichloropyridin-4-yl)isoxazol-4-yl)vinyl)-3-azabicyclo[3.1.0]hexan-3-yl)thiazol-5-yl)-5-methoxybenzoic acid] | 202 |
| O=C(O)c1ccc(N2CCC(/C=C\c3c(-c4c(Cl)cccc4Cl)noc3C3CC3)CC2)nc1 [Example 3, (Z)-6-(4-(2-(5-cyclopropyl-3-(2,6-dichlorophenyl)isoxazol-4-yl)vinyl)piperidin-1-yl)nicotinic acid] | 107 |
| O=C(O)c1ccc(N2CCC(/C=C/c3c(C4CC4)cnn3-c3c(Cl)cccc3Cl)CC2)nc1 [Example 11, (E)-6-(4-(2-(4-Cyclopropyl-1-(2,6-dichlorophenyl)-1H-pyrazol-5-yl)vinyl)piperidin-1-yl)nicotinic acid] | 148 |
| CS(=O)(=O)NC(=O)c1ccc(N2CC3C(/C=C/c4c(-c5c(Cl)cccc5Cl)noc4C4CC4)C3C2)cc1 (centres unmarked) [Example 71, (E)-4-(6-(2-(5-Cyclopropyl-3-(2,6-dichlorophenyl)isoxazol-4-yl)vinyl)-3-azabicyclo[3.1.0]hexan-3-yl)-N-(methylsulfonyl)benzamide] | 83 |
| NC(=O)c1ccc(N2CC3C(/C=C/c4c(-c5c(Cl)cccc5Cl)noc4C4CC4)C3C2)cc1 (centres unmarked) [Example 70, (E)-4-(6-(2-(5-Cyclopropyl-3-(2,6-dichlorophenyl)isoxazol-4-yl)vinyl)-3-azabicyclo[3.1.0]hexan-3-yl)benzamide] | 377 |
| NC(=O)c1cc(OC2CC2)c2cc(N3CC4C(/C=C/c5c(-c6ccccc6C(F)(F)F)noc5C5CC5)C4C3)ccc2n1 (centres unmarked) [Example 183, (E)-4-Cyclopropoxy-6-(6-(2-(5-cyclopropyl-3-(2-(trifluoromethyl)phenyl)-isoxazol-4-yl)vinyl)-3-azabicyclo[3.1.0]hexan-3-yl)quinoline-2-carboxamide] | 908 |
| C/C(=C\c1c(-c2c(Cl)cccc2Cl)noc1C1CC1)C1CCN(c2ccc3nc(C(=O)O)ccc3c2)CC1 [Example 5, (E)-6-(4-(1-(5-Cyclopropyl-3-(2,6-dichlorophenyl)isoxazol-4-yl)prop-1-en-2-yl)piperidin-1-yl)quinoline-2-carboxylic acid] | 1250 |
| O=C(O)c1cc(F)c2nc(N3CCC(/C=C/c4c(-c5c(Cl)cccc5Cl)cnn4C4CC4)CC3)sc2c1 [Example 12, (E)-2-(4-(2-(1-Cyclopropyl-4-(2,6-dichlorophenyl)-1H-pyrazol-5-yl)vinyl)piperidin-1-yl)-4-fluorobenzo[d]thiazole-6-carboxylic acid] | 226 |

Same assay, conditions: read-out: FXR EC50; Gal4-hFXR fusion reporter, HEK293 cells; Table 1

| SMILES | EC50 [nM] |
| --- | --- |
| Cc1cc(C(=O)O)nc2ccc(N3CC4C(/C=C/c5c(-c6c(Cl)cncc6Cl)noc5C5CC5)C4C3)cc12 (centres unmarked) [Example 111] | 38 |
